Each compound was assayed on Daudi cells (assay: Inhibition of human Daudi lymphoma cell proliferation (Cell-Titer Glo)). Settings: Homo sapiens, 72 h, 3 days incubation, read-out: Anti-Proliferative Activity Against Daudi cells IC50.
Type: cell-based
Description: (§1) Introduction of the experimental principle: After the RAD51 inhibitor to be tested was co-incubated with cancer cells for a period of time, the influence of the test compound on cell proliferation was measured by a method for counting cell proliferation based on the quantitative measurement of intracellular ATP content.
Materials and Cells: Daudi cells were purchased from ATCC; fetal bovine serum, 1640 medium and penicillin-streptomycin were purchased from Gibco Inc. (U.S.), 96-well plates were purchased from Corning Inc. (U.S.), and Cell-Titer Glo reagent was purchased from Promega Corporation (U.S.).
Cell culture: Daudi cells were cultured in 1640 culture medium containing 10% fetal bovine serum and 1% penicillin-streptomycin at 37° C. in an atmosphere containing 5% CO2. Cells in logarithmic growth phase could be used for experiments.
(§2) Assay of cell proliferation and viability: Cell-Titer Glo reagent was used to measure the inhibitory activities of the compounds on the proliferation of Daudi cell strain. The concentration of cells was adjusted, and the cells were seeded in a 96-well plate and cultured at 37° C. in an atmosphere containing 5% CO2 for 24 hours. The powder of the compound was dissolved in 100% DMSO to form a 10 mM solution. 10 μl of the solution of the compound was aspirated and transferred into a 96-well compound plate containing 20 μl of DMSO solution for 3-fold dilution and was then formulated into 10 serial dilutions. Thereafter, 2 μl of the solution of the compound was aspirated from the corresponding well and added correspondingly into a 96-well intermediate compound dilution plate containing 78 μl of complete culture medium in each well. The resultant was mixed well, and the plate was centrifuged at 1000 rpm for 1 minute. Finally, 10 μl of the solution of the compound was aspirated from the corresponding well of the 96-well intermediate compound dilution plate, and transferred into the corresponding well of the cell culture plate containing 90 μl of complete culture medium. The final concentration of DMSO was 0.25%. After the addition of the compound, the cells were continued to be incubated for 3 days at 37° C. in an atmosphere containing 5% CO2. Cell-Titer Glo reagent was added to measure cell viability.
% Compound inhibition was calculated and IC50 of the compound was filled;
(§3) % Compound inhibition=1−100%×(Signal−Bottom)/(Top−Bottom)
With C=CC(=O)N=S(=O)(c1cc(NC(=O)OC(C)C)ccc1-c1cnc([C@H]2CC[C@H](NC(=O)OC(C)C)CC2)s1)C(C)C (relative stereo) [Example 4, isopropyl trans-N-[4-[2-[4-(isopropoxycarbonylamino)cyclohexyl]thiazol-5-yl]-3-(isopropyl-N-prop-2-enoyl-sulfonimidoyl)phenyl]carbamate] the IC50 was 1010 nM.
Cc1cc(Nc2ccc(-c3ccc([C@H]4CC[C@H](NC(=O)OC(C)C)CC4)s3)c(S(=O)(=O)C3CC3)c2)n[nH]1 [Example 89, isopropyl trans-(4-(5-(2-(cyclopropylsulfonyl)-4-((5-methyl-1H-pyrazol-3-yl)amino)phenyl)thiophen-2-yl)cyclohexyl)carbamate] was tested, and the IC50 was 7 nM.
In the case of Cc1cc(Nc2ccc(-c3ccc([C@H]4CC[C@@H](NC(=O)OC(C)C)CC4)s3)c(S(=O)(=O)C3CC3)c2)n[nH]1 [Example 89-1, isopropyl cis-(4-(5-(2-(cyclopropylsulfonyl)-4-((5-methyl-1H-pyrazol-3-yl)amino)phenyl)thiophen-2-yl)cyclohexyl)carbamate], the IC50 is reported as 127 nM.
Work on Cc1cc(Nc2ccc(-c3cnc([C@H]4CC[C@H](NC(=O)OC(C)C)CC4)[nH]3)c(S(=O)(=O)C3CC3)c2)n[nH]1 [Example 90] yielded an IC50 of 8800 nM.
Compound Cc1cc(Nc2ccc(-c3ncc([C@H]4CC[C@H](NC(=O)OC(C)C)CC4)s3)c(S(=O)(=O)C3CC3)c2)n[nH]1 [Example 91, isopropyl trans-(4-(2-(2-(cyclopropylsulfonyl)-4-((5-methyl-1H-pyrazol-3-yl)amino)phenyl)thiazol-5-yl)cyclohexyl)carbamate] has an IC50 of 1500 nM.
Work on Cc1cc(Nc2ccc(-c3ncc([C@H]4CC[C@@H](NC(=O)OC(C)C)CC4)s3)c(S(=O)(=O)C3CC3)c2)n[nH]1 [Example 91-1, isopropyl cis-(4-(2-(2-(cyclopropylsulfonyl)-4-((5-methyl-1H-pyrazol-3-yl)amino)phenyl)thiazol-5-yl)cyclohexyl)carbamate] yielded an IC50 of 60 nM.
COc1ccc(Nc2ccc(-c3cnc([C@H]4CC[C@H](NC(=O)OC(C)C)CC4)s3)c(S(=O)(=O)C3CC3)c2)cn1 [Example 93, isopropyl trans-(4-(5-(2-(cyclopropylsulfonyl)-4-((6-methoxypyridin-3-yl)amino)phenyl)thiazol-2-yl)cyclohexyl)carbamate] gave an IC50 of 10 nM.
CC(C)OC(=O)N[C@H]1CC[C@H](c2ncc(-c3ccc(Nc4ccc(=O)[nH]c4)cc3S(=N)(=O)C3CC3)s2)CC1 (stereo partly drawn) [Example 95, isopropyl trans-(4-(5-(2-(cyclopropanesulfonimidoyl)-4-((6-oxo-1,6-dihydropyridin-3-yl)amino)phenyl)thiazol-2-yl)cyclohexyl)carbamate] showed an IC50 of 132 nM.
CC(C)OC(=O)N[C@H]1CC[C@H](c2ncc(-c3ccc(Nc4ccc(=O)[nH]c4)cc3S(=O)(=O)C3CC3)s2)CC1 [Example 96, isopropyl trans-(4-(5-(2-(cyclopropylsulfonyl)-4-((6-oxo-1,6-dihydropyridin-3-yl)amino)phenyl)thiazol-2-yl)cyclohexyl)carbamate] was tested, and the IC50 was 140 nM.
For CN=S(=O)(c1cc(Nc2cc(C)[nH]n2)ccc1-c1cnc([C@H]2CC[C@H](NC(=O)OC(C)C)CC2)s1)C1CC1 (stereo partly drawn) [Example 97, isopropyl trans-(4-(5-(4-((5-methyl-1H-pyrazol-3-yl)amino)-2-(N-methylcyclopropanesulfonimidoyl)phenyl)thiazol-2-yl)cyclohexyl)carbamate], the IC50 was 290 nM.
In the case of CC(C)OC(=O)N[C@H]1CC[C@H](c2ncc(-c3ccc(Nc4ncco4)cc3S(=N)(=O)C3CC3)s2)CC1 (stereo partly drawn) [Example 99, isopropyl trans-(4-(5-(2-(cyclopropanesulfonimidoyl)-4-(oxazol-2-ylamino)phenyl)thiazol-2-yl)cyclohexyl)carbamate], the IC50 is reported as 36 nM.
In the case of CC(C)OC(=O)N[C@H]1CC[C@H](c2ncc(-c3ccc(Nc4nnco4)cc3S(=N)(=O)C3CC3)s2)CC1 (stereo partly drawn) [Example 100, isopropyl trans-(4-(5-(4-((1,3,4-oxadiazol-2-yl)amino)-2-(cyclopropanesulfonimidoyl)phenyl)thiazol-2-yl)cyclohexyl)carbamate], the IC50 is reported as 680 nM.
Cc1cc(Nc2ccc(-c3cnc([C@H]4CC[C@H](NC(=O)OC(C)C)CC4)s3)c(S(=N)(=O)C3COC3)c2)n[nH]1 (stereo partly drawn) [Example 105, isopropyl trans-N-[4-[5-[4-[(5-methyl-1H-pyrazol-3-yl)amino]-2-(oxetan-3-ylsulfonimidoyl)phenyl]thiazol-2-yl]cyclohexyl]carbamate] was tested, and the IC50 was 26 nM.
CC(C)OC(=O)N[C@H]1CC[C@H](c2ncc(-c3ccc(Nc4cnn(CCF)c4)cc3S(=N)(=O)C3COC3)s2)CC1 (stereo partly drawn) [Example 106, isopropyl trans-N-[4-[5-[4-[[1-(2-fluoroethyl)pyrazol-4-yl]amino]-2-(oxetan-3-ylsulfonimidoyl)phenyl]thiazol-2-yl]cyclohexyl]carbamate] was tested, and the IC50 was 40 nM.
Cc1cc(Nc2ccc(-c3nc4c(s3)CC(NC(=O)OC(C)C)CC4)c(S(=O)(=O)C3CC3)c2)n[nH]1 (stereo not shown) [Example 107, isopropyl (2-(2-(cyclopropylsulfonyl)-4-((5-methyl-1H-pyrazol-3-yl)amino)phenyl)-4,5,6,7-tetrahydrobenzo[d]thiazol-6-yl)carbamate] was tested, and the IC50 was 275 nM.
Compound Cc1cc(Nc2ccc(-c3nc4c(s3)CCN(C(=O)OC(C)C)CC4)c(S(=O)(=O)C3CC3)c2)n[nH]1 [Example 108, isopropyl 2-(2-(cyclopropylsulfonyl)-4-((5-methyl-1H-pyrazol-3-yl)amino)phenyl)-7,8-dihydro-4H-thiazolo[4,5-d]aza-6(5H)-carboxylate] has an IC50 of 468 nM.
Cc1cc(Nc2ccc(-c3cnc(N4CC5C(C4)C5NC(=O)OC(C)C)s3)c(S(=O)(=O)C3CC3)c2)n[nH]1 (stereo not shown) [Example 109, isopropyl (3-(5-(2-(cyclopropylsulfonyl)-4-((5-methyl-1H-pyrazol-3-yl)amino)phenyl)thiazol-2-yl)-3-azabicyclo[3.1.0]hexanone-6-yl)carbamate] was tested, and the IC50 was 76 nM.
With CCNC(=O)c1ccc(-c2cnc([C@H]3CC[C@H](NC(=O)OC(C)C)CC3)s2)c(S(=O)(=O)C2CC2)c1 [Example 111, isopropyl trans-(4-(5-(2-(cyclopropylsulfonyl)-4-(ethylcarbamoyl)phenyl)thiazol-2-yl)cyclohexyl)carbamate] the IC50 was 700 nM.
Work on CC(C)OC(=O)N[C@H]1CC[C@H](c2ncc(-c3ccc(Nc4ccc(F)cn4)cc3S(=O)(=O)C3COC3)s2)CC1 [Example 112, isopropyl trans-N-[4-[5-[4-[(5-fluoro-2-pyridyl)amino]-2-(oxetan-3-ylsulfonyl)phenyl]thiazol-2-yl]cyclohexyl]carbamate] yielded an IC50 of 17 nM.
COc1ccc(Nc2ccc(-c3cnc([C@H]4CC[C@H](NC(=O)OC(C)C)CC4)s3)c(S(=O)(=O)C3COC3)c2)cn1 [Example 113, isopropyl trans-N-[4-[5-[4-[(6-methoxy-3-pyridyl)amino]-2-(oxetan-3-ylsulfonyl)phenyl]thiazol-2-yl]cyclohexyl]carbamate] was tested, and the IC50 was 16 nM.
Cc1cc(Nc2ccc(-c3cnc([C@H]4CC[C@H](NC(=O)OC(C)C)CC4)s3)c(S(=O)(=O)C3CC3)c2)n(C)n1 [Example 116, isopropyl trans-(4-(5-(2-(cyclopropylsulfonyl)-4-((1,3-dimethyl-1H-pyrazol-5-yl)amino)phenyl)thiazol-2-yl)cyclohexyl)carbamate] showed an IC50 of 4 nM.

What follows are compounds tested on WI-38 cells (assay: Inhibition of human WI-38 embryonic lung cell proliferation (Cell-Titer Glo)). Settings: Homo sapiens, 72 h, 3 days incubation, read-out: Anti-Proliferative Activity Against WI-38 cells IC50.
Type: cell-based
Description: as §1, with “human embryonic lung” for “cancer”
Materials and Cells: WI-38 cells were purchased from ATCC; fetal bovine serum, 1640 medium and penicillin-streptomycin were purchased from Gibco Inc. (U.S.), 96-well plates were purchased from Corning Inc. (U.S.), and Cell-Titer Glo reagent was purchased from Promega Corporation (U.S.).
Cell culture: WI-38 cells were cultured in an EMEM culture medium containing 10% fetal bovine serum and 1% penicillin-streptomycin at 37° C. in an atmosphere containing 5% CO2. Cells in logarithmic growth phase could be used for experiments.
as §2, with “proliferation of WI-38 cell strain.” for “proliferation of Daudi cell strain.”, “DMSO solution in each well for 3-fold” for “DMSO solution for 3-fold”, “then formulated to 10 serial” for “then formulated into 10 serial”
% Compound inhibition was calculated and IC50 of the compound was fitted;
as §3
C=CC(=O)N=S(=O)(c1cc(NC(=O)OC(C)C)ccc1-c1cnc([C@H]2CC[C@H](NC(=O)OC(C)C)CC2)s1)C(C)C (relative stereo) [Example 4, isopropyl trans-N-[4-[2-[4-(isopropoxycarbonylamino)cyclohexyl]thiazol-5-yl]-3-(isopropyl-N-prop-2-enoyl-sulfonimidoyl)phenyl]carbamate] showed an IC50 of 7220 nM.

— US20230142274A1 (SIMCERE PHARMACEUTICAL CO., LTD., priority 2020, published 2023)
